From patent publication US20240360194A1, “New Peptides as Potent and Selective GIP Receptor Agonists” (Sanofi, priority 2021, published 2024)
Values after ≈ are worked out from the molar mass of the structure shown. Like-named read-outs stand apart in the source and are kept apart here. Numbered stars: 1 amine (or outer) side, 2 acyl side, 3 side chain; on linkers, the order of the positions; unused ones are H or OH. Square brackets hold non-standard residues; d marks the D form. Side chains are listed from the residue outwards. Peptide text beside a SMILES is read from it. * marks the point of attachment. C18 diacid = O=C(O)CCCCCCCCCCCCCCCCC(=O)*; γGlu = O=C(O)[C@H](CCC(=O)[*:2])N[*:1]; dIva = CC[C@@](C)(N)C(=O)O; AEEA = NCCOCCOCC(=O)O; Aib = CC(C)(N)C(=O)O

Legend:
[1] = Chemical stability assessment (UHPLC-UV purity loss on storage in solution); type: physicochemical; details: Chemical stability buffer system A: 20 mM phosphate buffer pH 7.4; ~300 μM
Description: Purity of a peptide batch was determined through UHPLC/MS prior to chemical stability measurement. The target concentration was 300 μM pure compound. Solutions from solid samples were prepared in the following buffer systems with a concentration of ˜300 μM compound based on the previously determined % purity: • Chemical stability buffer system A) 20 mM phosphate buffer pH 7.4, • Chemical stability buffer system B) 8 mM phosphate buffer pH 7.4, 14 mg/ml propylene glycol, 5.5 mg/ml phenol • Chemical stability buffer system C) 100 mM phosphate buffer pH 7.4, 2.7 mg/ml m-cresol
Prepared solutions were filtered through […] pore size and filled into sterilized glass containers under laminar flow conditions.
Glass containers were stored for 28 days at 5 and 40° C. After this time, the samples were centrifuged for 15 min at 2500 RCF. Then 1.5 μl of the undiluted supernatant were analysed with UHPLC-UV.
The chemical stability was rated through the relative loss of purity calculated by the equation: […]
The purity is calculated as
The analytical methods used were Analytical UHPLC Method B or C.
Peptide samples were prepared in Chemical stability buffer system A or B and stability was assessed as described in Methods.

[2] = target: T1, human GIP receptor (hGIPR) (Homo sapiens, UniProt P48546); experiment: Binding assay, displacement of [125I]GIP from HEK-293 membranes over-expressing GIPR (SPA); details: [125I]GIP displacement
T1 sequence (P48546 22-466): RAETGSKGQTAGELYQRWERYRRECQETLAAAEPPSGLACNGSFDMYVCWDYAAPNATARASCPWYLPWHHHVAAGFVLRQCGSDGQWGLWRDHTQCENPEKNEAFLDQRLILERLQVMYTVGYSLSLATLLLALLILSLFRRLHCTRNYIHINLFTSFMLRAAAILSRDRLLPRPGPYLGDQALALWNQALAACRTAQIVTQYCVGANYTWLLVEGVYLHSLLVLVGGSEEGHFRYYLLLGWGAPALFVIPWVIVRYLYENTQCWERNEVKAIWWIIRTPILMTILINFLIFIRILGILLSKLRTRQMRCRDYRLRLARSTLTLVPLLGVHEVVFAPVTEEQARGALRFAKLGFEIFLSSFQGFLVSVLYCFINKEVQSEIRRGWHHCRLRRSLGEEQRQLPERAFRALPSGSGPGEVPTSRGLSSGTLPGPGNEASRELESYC
Summary of the method: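 Membranes from HEK-293 cells over-expressing human GIPR or GLP-1R, isolated by homogenising, sonicating and ultracentrifuging at 100000×g into HEPES/EDTA/NaCl buffer with protease inhibitors, were used for binding.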

[3] = target: human GLP-1 receptor (hGLP-1R) (Homo sapiens, UniProt P43220); experiment: In vitro cellular cAMP assay for GLP-1 receptor efficacy (HEK-293 cell line over-expressing receptor); type: cell-based; details: HEK-293, 0.1% BSA
[4] = Solubility assessment (UHPLC-UV of supernatant, target 10 mg/ml); type: physicochemical; details: for Soluble amount: pH 7.4
Summary of the method: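 Peptides at 10 mg/ml (purity-corrected) in 100 mM phosphate pH 7.4, optionally with 2.7 mg/ml m-cresol; gentle agitation 1 h, then 5° C. overnight (24 h). Supernatant after 15 min centrifugation at 2500 RCF quantified by UHPLC-UV, with sequence-based extinction coefficients.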

[5] = 100 mM phosphate buffer pH 7.4 (solubility buffer system A), pH 7.4, Solubility buffer system A: 100 mM phosphate buffer pH 7.4, read-out: Soluble amount
[6] = pH 7.4, Solubility buffer system C: 100 mM phosphate buffer pH 7.4, 2.7 mg/ml m-cresol, read-out: Soluble amount

Chain of human GLP-1 receptor (hGLP-1R) (P43220 24-463): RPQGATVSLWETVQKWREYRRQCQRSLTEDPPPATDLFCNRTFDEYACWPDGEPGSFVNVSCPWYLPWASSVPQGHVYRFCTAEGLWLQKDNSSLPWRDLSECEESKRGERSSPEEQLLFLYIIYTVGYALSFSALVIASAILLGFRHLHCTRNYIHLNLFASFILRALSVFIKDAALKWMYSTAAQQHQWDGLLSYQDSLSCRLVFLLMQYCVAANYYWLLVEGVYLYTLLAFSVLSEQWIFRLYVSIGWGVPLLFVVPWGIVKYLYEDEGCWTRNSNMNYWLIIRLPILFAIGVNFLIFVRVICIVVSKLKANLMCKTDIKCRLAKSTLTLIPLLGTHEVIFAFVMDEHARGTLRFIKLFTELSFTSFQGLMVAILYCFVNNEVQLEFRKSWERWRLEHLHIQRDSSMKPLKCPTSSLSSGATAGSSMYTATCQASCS

| SMILES | Relative purity loss over 28 days at 40° C. [1] [%] | IC50 [2] [nM] | EC50 [3] [nM] | solubility at 24 h [4, 5] [mg/mL] | solubility at 24 h [4, 6] [mg/mL] | Soluble amount [4] [mg/mL] | solubility ([4]; pH 7.4, Soluble amount) [mg/mL] | solubility at 24 h ([4]; pH 7.4, Soluble amount) [mg/mL] |
| --- | --- | --- | --- | --- | --- | --- | --- | --- |
| CC[C@H](C)[C@H](NC(=O)[C@H](Cc1ccccc1)NC(=O)[C@H](CCC(=O)O)NC(=O)[C@H](CCC(=O)O)NC(=O)[C@H](CCC(N)=O)NC(=O)[C@H](Cc1c[nH]cn1)NC(=O)[C@@H](NC(=O)[C@H](CCCNC(=N)N)NC(=O)[C@H](CC(=O)O)NC(=O)[C@H](CCCCNC(=O)COCCOCCNC(=O)COCCOCCNC(=O)CC[C@H](NC(=O)CCCCCCCCCCCCCCCCC(=O)O)C(=O)O)NC(=O)C(C)(C)NC(=O)[C@@H](NC(=O)[C@H](CO)NC(=O)[C@H](CC(C)C)NC(=O)[C@H](CC(=O)O)NC(=O)[C@H](CO)NC(=O)[C@@H](NC(=O)[C@H](Cc1ccccc1)NC(=O)[C@@H](NC(=O)CNC(=O)[C@H](CCC(=O)O)NC(=O)C(C)(C)NC(=O)[C@@H](N)Cc1ccc(O)cc1)[C@@H](C)O)[C@@H](C)CC)[C@@H](C)CC)[C@@H](C)CC)C(=O)N[C@@H](CCC(=O)O)C(=O)N[C@@H](Cc1c[nH]c2ccccc12)C(=O)N[C@@H](CC(C)C)C(=O)N[C@@H](CC(C)C)C(=O)N[C@@H](C)C(=O)N[C@@H](CCC(N)=O)C(=O)N[C@@H](CCCNC(=N)N)C(=O)NCC(N)=O [SEQ ID NO: 4, H2N-Y-Aib-E-G-T-F-I-S-D-L-S-I-Aib-K[{AEEA}2-gGlu-C18OH]-D-R-I-H-Q-E-E-F-I-E-W-L-L-A-Q-R-G-NH2] | 5.1 | 1.5 | > 1 | > 30 | > 8.7 | – | – | – |
| CC[C@H](C)[C@H](NC(=O)[C@H](CCCNC(=N)N)NC(=O)[C@H](CC(=O)O)NC(=O)[C@H](CCCCNC(=O)COCCOCCNC(=O)COCCOCCNC(=O)CC[C@H](NC(=O)CCCCCCCCCCCCCCCCC(=O)O)C(=O)O)NC(=O)C(C)(C)NC(=O)[C@@H](NC(=O)[C@H](CO)NC(=O)[C@H](CC(C)C)NC(=O)[C@H](CC(=O)O)NC(=O)[C@H](CO)NC(=O)[C@@H](NC(=O)[C@H](Cc1ccccc1)NC(=O)[C@@H](NC(=O)CNC(=O)[C@H](CCC(=O)O)NC(=O)C(C)(C)NC(=O)[C@@H](N)Cc1ccc(O)cc1)[C@@H](C)O)[C@@H](C)CC)[C@@H](C)CC)C(=O)N[C@@H](Cc1c[nH]cn1)C(=O)N[C@@H](CCC(N)=O)C(=O)NC(C)(C)C(=O)N[C@@H](CCC(=O)O)C(=O)N[C@@H](Cc1ccccc1)C(=O)N[C@H](C(=O)N[C@@H](CCC(=O)O)C(=O)N[C@@H](Cc1c[nH]c2ccccc12)C(=O)N[C@@H](CC(C)C)C(=O)N[C@@H](CC(C)C)C(=O)N[C@@H](C)C(=O)N[C@@H](CCC(N)=O)C(=O)N[C@@H](CCC(=O)O)C(=O)NCC(N)=O)[C@@H](C)CC [SEQ ID NO: 12, H2N-Y-Aib-E-G-T-F-I-S-D-L-S-I-Aib-K[{AEEA}2-gGlu-C18OH]-D-R-I-H-Q-Aib-E-F-I-E-W-L-L-A-Q-E-G-NH2] | 7.4 | 0.5 | > 10 | > 9.5 | 7.6 (≈ 1760 µM) | – | – | – |
| CC[C@H](C)[C@H](NC(=O)[C@H](Cc1ccccc1)NC(=O)[C@H](CCC(=O)O)NC(=O)[C@H](CCC(=O)O)NC(=O)[C@H](CCC(N)=O)NC(=O)[C@H](Cc1c[nH]cn1)NC(=O)[C@@H](NC(=O)[C@H](CCCNC(=N)N)NC(=O)[C@H](CC(=O)O)NC(=O)[C@H](CCCCNC(=O)COCCOCCNC(=O)COCCOCCNC(=O)CC[C@H](NC(=O)CCCCCCCCCCCCCCCCC(=O)O)C(=O)O)NC(=O)C(C)(C)NC(=O)[C@@H](NC(=O)[C@H](CO)NC(=O)[C@H](CC(C)C)NC(=O)[C@H](CC(=O)O)NC(=O)[C@H](CO)NC(=O)[C@@H](NC(=O)[C@@](C)(CC)NC(=O)[C@@H](NC(=O)CNC(=O)[C@H](CCC(=O)O)NC(=O)C(C)(C)NC(=O)[C@@H](N)Cc1ccc(O)cc1)[C@@H](C)O)[C@@H](C)CC)[C@@H](C)CC)[C@@H](C)CC)C(=O)N[C@@H](CCC(=O)O)C(=O)N[C@@H](Cc1c[nH]c2ccccc12)C(=O)N[C@@H](CC(C)C)C(=O)N[C@@H](CC(C)C)C(=O)N[C@@H](C)C(=O)N[C@@H](CCC(N)=O)C(=O)N[C@@H](CCCNC(=N)N)C(=O)NCC(N)=O [SEQ ID NO: 15, H2N-Y-Aib-E-G-T-Iva-I-S-D-L-S-I-Aib-K[{AEEA}2-gGlu-C18OH]-D-R-I-H-Q-E-E-F-I-E-W-L-L-A-Q-R-G-NH2] | 6.5 | 0.2 | > 10 | – | – | 8.5 | > 9.5 | – |
| CC[C@H](C)[C@H](NC(=O)[C@H](CCCNC(=N)N)NC(=O)[C@H](CC(=O)O)NC(=O)[C@H](CCCCNC(=O)COCCOCCNC(=O)COCCOCCNC(=O)CC[C@H](NC(=O)CCCCCCCCCCCCCCCCC(=O)O)C(=O)O)NC(=O)C(C)(C)NC(=O)[C@@H](NC(=O)[C@H](CO)NC(=O)[C@H](CC(C)C)NC(=O)[C@H](CC(=O)O)NC(=O)[C@H](CO)NC(=O)[C@@H](NC(=O)[C@H](Cc1ccccc1)NC(=O)[C@@H](NC(=O)CNC(=O)[C@H](CCC(=O)O)NC(=O)C(C)(C)NC(=O)[C@@H](N)Cc1ccc(O)cc1)[C@@H](C)O)[C@@H](C)CC)[C@@H](C)CC)C(=O)N[C@@H](Cc1c[nH]cn1)C(=O)N[C@@H](CCC(N)=O)C(=O)NC(C)(C)C(=O)N[C@@H](CCC(=O)O)C(=O)N[C@@H](Cc1ccccc1)C(=O)N[C@H](C(=O)N[C@@H](CCC(=O)O)C(=O)N[C@@H](Cc1c[nH]c2ccccc12)C(=O)N[C@](C)(CC)C(=O)N[C@@H](CC(C)C)C(=O)N[C@@H](C)C(=O)N[C@@H](CCC(N)=O)C(=O)NCC(=O)N1CCC[C@H]1C(=O)N[C@@H](CO)C(=O)N[C@@H](CO)C(=O)NCC(=O)N[C@@H](C)C(=O)N1CCC[C@H]1C(=O)N1CCC[C@H]1C(=O)N1CCC[C@H]1C(=O)N[C@@H](CO)C(N)=O)[C@@H](C)CC [SEQ ID NO: 31, H2N-Y-Aib-E-G-T-F-I-S-D-L-S-I-Aib-K[{AEEA}2-gGlu-C18OH]-D-R-I-H-Q-Aib-E-F-I-E-W-Iva-L-A-Q-G-P-S-S-G-A-P-P-P-S-NH2] (H-Y[Aib]EGTFISDLSI[Aib]K([AEEA-AEEA-γGlu-C18 diacid])DRIHQ[Aib]EFIEW[dIva]LAQGPSSGAPPPS-NH2) | 6.2 | 0.3 | > 10 | – | – | 9.6 | > 10 | – |
| CC[C@H](C)[C@H](NC(=O)[C@H](CCCNC(=N)N)NC(=O)[C@H](CC(=O)O)NC(=O)[C@H](CC(C)C)NC(=O)C(C)(C)NC(=O)[C@@H](NC(=O)[C@H](CO)NC(=O)[C@H](CC(C)C)NC(=O)[C@H](CC(=O)O)NC(=O)[C@H](CO)NC(=O)[C@@H](NC(=O)[C@H](Cc1ccccc1)NC(=O)[C@@H](NC(=O)CNC(=O)[C@H](CCC(=O)O)NC(=O)C(C)(C)NC(=O)[C@@H](N)Cc1ccc(O)cc1)[C@@H](C)O)[C@@H](C)CC)[C@@H](C)CC)C(=O)N[C@@H](CCCCNC(=O)COCCOCCNC(=O)COCCOCCNC(=O)CC[C@H](NC(=O)CCCCCCCCCCCCCCCCC(=O)O)C(=O)O)C(=O)N[C@@H](CCC(N)=O)C(=O)NC(C)(C)C(=O)N[C@@H](CCC(=O)O)C(=O)N[C@@H](Cc1ccccc1)C(=O)N[C@H](C(=O)N[C@@H](CCC(=O)O)C(=O)N[C@@H](Cc1c[nH]c2ccccc12)C(=O)N[C@@H](CC(C)C)C(=O)N[C@@H](CC(C)C)C(=O)N[C@@H](C)C(=O)N[C@@H](CCC(N)=O)C(=O)NCC(=O)N1CCC[C@H]1C(=O)N[C@@H](CO)C(=O)N[C@@H](CO)C(=O)NCC(=O)N[C@@H](C)C(=O)N1CCC[C@H]1C(=O)N1CCC[C@H]1C(=O)N1CCC[C@H]1C(=O)N[C@@H](CO)C(N)=O)[C@@H](C)CC [SEQ ID NO: 37, H2N-Y-Aib-E-G-T-F-I-S-D-L-S-I-Aib-L-D-R-I-K[{AEEA}2-gGlu-C18OH]-Q-Aib-E-F-I-E-W-L-L-A-Q-G-P-S-S-G-A-P-P-P-S-NH2] (H-Y[Aib]EGTFISDLSI[Aib]LDRIK([AEEA-AEEA-γGlu-C18 diacid])Q[Aib]EFIEWLLAQGPSSGAPPPS-NH2) | 5.3 | 0.1 | > 10 | – | – | – | – | 8.6 (≈ 1740 µM) |
